In general, IC20 refers to the concentration needed for an effect of 20%.

One data set has as its target T1, hTLR9 (Homo sapiens, UniProt Q9NR96).
T1 sequence (Q9NR96 26-1032): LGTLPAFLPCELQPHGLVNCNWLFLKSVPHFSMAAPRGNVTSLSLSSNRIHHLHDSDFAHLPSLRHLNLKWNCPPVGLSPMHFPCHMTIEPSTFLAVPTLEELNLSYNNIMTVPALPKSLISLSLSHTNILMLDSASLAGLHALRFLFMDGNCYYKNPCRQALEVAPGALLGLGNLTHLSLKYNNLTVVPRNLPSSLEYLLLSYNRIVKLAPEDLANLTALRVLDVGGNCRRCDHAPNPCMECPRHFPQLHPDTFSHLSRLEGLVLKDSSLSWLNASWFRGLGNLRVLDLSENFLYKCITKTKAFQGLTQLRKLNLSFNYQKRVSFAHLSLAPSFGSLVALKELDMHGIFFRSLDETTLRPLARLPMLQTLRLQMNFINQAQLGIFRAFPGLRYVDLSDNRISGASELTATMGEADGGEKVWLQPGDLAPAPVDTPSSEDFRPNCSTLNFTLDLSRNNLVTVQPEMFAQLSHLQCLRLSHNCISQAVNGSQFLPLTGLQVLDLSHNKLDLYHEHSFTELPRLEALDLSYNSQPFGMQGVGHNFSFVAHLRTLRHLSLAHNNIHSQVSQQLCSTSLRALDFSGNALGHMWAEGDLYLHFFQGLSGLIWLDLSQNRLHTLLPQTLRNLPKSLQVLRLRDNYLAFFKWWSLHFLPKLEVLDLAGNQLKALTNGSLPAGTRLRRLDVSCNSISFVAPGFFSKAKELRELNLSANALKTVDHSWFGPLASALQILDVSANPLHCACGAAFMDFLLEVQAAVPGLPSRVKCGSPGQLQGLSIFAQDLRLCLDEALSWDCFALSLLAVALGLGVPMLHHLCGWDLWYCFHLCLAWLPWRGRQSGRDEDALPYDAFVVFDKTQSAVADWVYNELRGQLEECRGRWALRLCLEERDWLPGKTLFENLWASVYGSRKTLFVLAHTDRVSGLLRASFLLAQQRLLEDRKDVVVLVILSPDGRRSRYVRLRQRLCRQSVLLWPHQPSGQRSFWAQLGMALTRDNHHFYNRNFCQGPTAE
Further details: host or cells: HEK. The note with it: data disclosed in US20150105370; read-out: HEK/hTLR9 IC50; cited from earlier work.

In another data set the target is T2, CYP3A4 (Homo sapiens, UniProt P08684).
T2 construct: tissue BD-Gentest 452117; host or cells: human liver microsomes
T2 sequence (P08684 whole entry): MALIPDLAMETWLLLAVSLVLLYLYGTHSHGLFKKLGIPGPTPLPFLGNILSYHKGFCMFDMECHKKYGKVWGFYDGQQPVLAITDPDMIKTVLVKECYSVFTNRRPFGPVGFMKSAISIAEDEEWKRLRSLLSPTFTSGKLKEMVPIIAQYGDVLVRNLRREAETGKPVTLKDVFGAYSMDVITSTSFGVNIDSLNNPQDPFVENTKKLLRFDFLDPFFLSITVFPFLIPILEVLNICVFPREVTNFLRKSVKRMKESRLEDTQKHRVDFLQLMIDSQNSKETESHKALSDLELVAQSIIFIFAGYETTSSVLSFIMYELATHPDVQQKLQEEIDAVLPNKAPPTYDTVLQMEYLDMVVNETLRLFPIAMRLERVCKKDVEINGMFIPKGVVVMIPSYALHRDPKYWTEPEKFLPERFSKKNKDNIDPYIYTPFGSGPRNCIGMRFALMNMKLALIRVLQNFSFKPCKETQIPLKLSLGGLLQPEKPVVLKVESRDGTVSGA
Description: CYP inhibition assay in human liver microsome, CYP3A4. The format is in vitro ADME. The conditions noted are these: percentage inhibition, substrate Midazolam 5 μM, <0: not or weak inhibitor. The method, then: (§1) This is a high throughput screening assay used for assessment of reversible inhibition of CYP2C9, CYP2D6, and CYP3A4 activity of test compounds in human liver microsome (HLM) in early discovery stage.
(§2) Procedure 10 mM DMSO stock solutions of test compounds were diluted in DMSO to generate 2 mM intermediate stock solution. 250 nL of intermediate stock solution were transferred in duplicate into 3 separate 384 well microtitre plates (assay-ready plates). A mixture of HLM and each substrate was made up. 45 μL of HLM substrate mix was then transferred to each well of an assay ready plate and mixed. The negative (solvent) and positive controls (standard inhibitor for each CYP) were included in each assay ready plate. The assay ready plate was warmed to 37° C. in an incubator over 10 minutes. 5 μL pre-warmed NADPH regenerating system was added to each incubation well to start the reaction. Final incubation volume was 50 μL. The assay plate then was placed back in the 37° C. incubator. After incubation (10 minutes for CYP2D6) for 5 minutes, incubates were quenched by addition of 50 μL 100% acetonitrile containing internal standards (400 ng/mL 13C6-4′-OH-Diclofenac, 20 ng/mL D3-Dextrorphan and 20 ng/mL D4-1′OH-Midazolam). The supernatants were collected for RapidFire/MS/MS analysis.
(§3) RapidFire online solid phase extraction/sample injection system (Agilent) coupled with API4000 triple quadrupole mass spectrometer (AB Sciex) were used for sample analysis. The mobile phase composed of acetonitrile and water supplemented with 0.1% formic acid. A C4 solid phase extraction cartridge is used for sample separation. MS detection is achieved in positive ion MRM mode.
(§4) Data analysis Peak areas for substrate, metabolite and internal standard are determined using the RapidFire integrator software (version 3.6.12009.12296). Peak area ratios (PAR) of metabolite and internal standard (stable-labelled metabolite) are then calculated. The measurement window for each experiment is then defined: PAR (0% activity)=average PAR for all incubations containing concentrated inhibitor; Par (100% activity)=average PAR for all incubations containing no inhibitor (DMSO controls); % Activity (test inhibitor)=[PAR (test inhibitor)-PAR (0% activity)]/[PAR (100% activity)-PAR (0% activity)]; % Inhibition (test inhibitor)=100-% Activity (test inhibitor).
(Microsomes from liver hold many membrane-bound enzymes, among them those of drug oxidation.)

The target of a further data set is T3, CYP2D6 (Homo sapiens, UniProt P10635).
T3 construct: tissue BD-Gentest 452117; host or cells: human liver microsomes
T3 sequence (P10635 whole entry): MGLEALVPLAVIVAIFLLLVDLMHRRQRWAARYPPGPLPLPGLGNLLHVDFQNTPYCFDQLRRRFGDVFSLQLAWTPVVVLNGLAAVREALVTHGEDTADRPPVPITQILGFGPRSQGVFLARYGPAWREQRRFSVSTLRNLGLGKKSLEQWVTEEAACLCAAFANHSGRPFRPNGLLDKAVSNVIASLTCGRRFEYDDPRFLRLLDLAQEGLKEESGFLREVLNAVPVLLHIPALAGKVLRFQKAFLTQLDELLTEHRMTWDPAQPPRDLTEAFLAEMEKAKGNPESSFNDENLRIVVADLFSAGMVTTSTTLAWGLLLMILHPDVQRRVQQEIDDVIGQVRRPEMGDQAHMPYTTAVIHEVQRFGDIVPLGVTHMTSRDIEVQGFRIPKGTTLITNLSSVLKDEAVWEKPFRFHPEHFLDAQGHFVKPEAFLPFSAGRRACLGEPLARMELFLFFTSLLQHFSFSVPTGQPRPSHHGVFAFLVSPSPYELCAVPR
Description: CYP inhibition assay in human liver microsome, CYP2D6. Type of data set: in vitro ADME. The note with it: percentage inhibition, substrate Dextromethorphan 5 μM, <0: not or weak inhibitor. The method, then: as §1, §2, §3, §4

In a further data set the target is T4, CYP2C9 (Homo sapiens, UniProt P11712).
T4 construct: tissue BD-Gentest 452117; host or cells: human liver microsomes
T4 sequence (P11712 whole entry): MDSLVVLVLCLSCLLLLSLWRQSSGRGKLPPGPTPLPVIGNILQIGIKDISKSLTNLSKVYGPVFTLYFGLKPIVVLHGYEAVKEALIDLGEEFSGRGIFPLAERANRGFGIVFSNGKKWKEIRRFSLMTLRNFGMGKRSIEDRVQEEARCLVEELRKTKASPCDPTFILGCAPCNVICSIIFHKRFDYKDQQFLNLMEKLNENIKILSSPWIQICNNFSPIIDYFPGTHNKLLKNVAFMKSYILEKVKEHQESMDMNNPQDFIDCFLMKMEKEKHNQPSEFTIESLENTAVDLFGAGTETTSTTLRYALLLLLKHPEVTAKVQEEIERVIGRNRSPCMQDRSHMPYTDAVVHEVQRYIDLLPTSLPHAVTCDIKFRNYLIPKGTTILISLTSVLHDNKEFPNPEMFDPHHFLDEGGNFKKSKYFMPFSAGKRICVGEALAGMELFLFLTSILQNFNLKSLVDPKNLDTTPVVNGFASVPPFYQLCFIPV
Description: CYP inhibition assay in human liver microsome, CYP2C9. Type of data set: in vitro ADME. The conditions noted are these: percentage inhibition, substrate Diclofenac 5 μM, <0: not or weak inhibitor. Here is the method: as §1, §2, §3, §4

In the next data set the target is T5, hERG channel (Homo sapiens, UniProt Q12809).
T5 construct: expressed in transfected cells
T5 sequence (Q12809 whole entry): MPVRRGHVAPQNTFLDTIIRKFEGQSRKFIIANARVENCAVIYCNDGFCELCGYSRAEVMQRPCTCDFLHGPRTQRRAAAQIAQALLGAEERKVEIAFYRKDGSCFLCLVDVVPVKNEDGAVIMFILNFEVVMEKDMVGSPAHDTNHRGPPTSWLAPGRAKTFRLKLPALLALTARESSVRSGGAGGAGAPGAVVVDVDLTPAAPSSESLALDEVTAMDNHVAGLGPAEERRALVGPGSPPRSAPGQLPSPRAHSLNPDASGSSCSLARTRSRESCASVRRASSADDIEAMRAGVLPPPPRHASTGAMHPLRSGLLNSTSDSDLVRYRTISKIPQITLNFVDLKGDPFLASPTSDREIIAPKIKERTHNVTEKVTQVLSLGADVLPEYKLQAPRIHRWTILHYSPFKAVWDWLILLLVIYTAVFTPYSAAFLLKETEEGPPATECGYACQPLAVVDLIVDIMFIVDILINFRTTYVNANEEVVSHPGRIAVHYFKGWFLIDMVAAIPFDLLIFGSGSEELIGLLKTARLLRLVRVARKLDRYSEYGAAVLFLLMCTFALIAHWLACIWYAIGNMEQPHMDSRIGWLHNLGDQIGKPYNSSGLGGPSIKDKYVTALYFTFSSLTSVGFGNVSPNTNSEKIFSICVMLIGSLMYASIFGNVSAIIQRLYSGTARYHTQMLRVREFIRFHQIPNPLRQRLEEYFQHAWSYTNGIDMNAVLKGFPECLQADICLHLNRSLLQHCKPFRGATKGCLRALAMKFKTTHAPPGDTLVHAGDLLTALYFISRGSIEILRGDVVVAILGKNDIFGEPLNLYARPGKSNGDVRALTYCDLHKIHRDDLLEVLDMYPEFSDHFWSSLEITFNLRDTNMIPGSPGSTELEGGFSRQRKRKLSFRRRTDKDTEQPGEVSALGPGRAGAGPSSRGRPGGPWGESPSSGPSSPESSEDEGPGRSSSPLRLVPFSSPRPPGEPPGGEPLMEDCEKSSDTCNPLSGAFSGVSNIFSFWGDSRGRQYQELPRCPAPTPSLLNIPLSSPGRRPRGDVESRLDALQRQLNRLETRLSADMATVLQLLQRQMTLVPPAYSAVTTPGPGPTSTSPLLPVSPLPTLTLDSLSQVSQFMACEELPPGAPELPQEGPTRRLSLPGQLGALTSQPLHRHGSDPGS
As to the kind of experiment: hERG channel inhibition assay (patch-clamp, CHO hERG cells). The format is cell-based. The conditions noted are these: CHO hERG cells, whole-cell patch-clamp; for IC20: human, CHO cells stably expressing hERG. The method, then:
hERG Channel Inhibition Assay:
The hERG K+ channels were cloned in humans and stably expressed in a CHO (Chinese hamster ovary) cell line. CHOhERG cells were used for patch-clamp (voltage-clamp, whole-cell) experiments. Cells were stimulated by a voltage pattern to activate hERG channels and conduct IKhERG Currents (rapid delayed outward rectifier potassium current of the hERG channel). After the cells were stabilized for a few minutes, the amplitude and kinetics of IKhERG were recorded at a stimulation frequency of 0.1 Hz, (6 bpm). Thereafter, the test compound was added to the preparation at increasing concentrations. For each concentration, an attempt was made to reach a steady-state effect, usually, this was achieved within 3-10 min at which time the next highest concentration was applied. The amplitude and kinetics of IKhERG are recorded in each concentration of the drug which were compared to the control values (taken as 100%). (references: Redfern W S, Carlsson L, Davis A S, Lynch W G, MacKenzie I, Palethorpe S, Siegl P K, Strang I, Sullivan A T, Wallis R, Camm A J, Hammond T G. 2003; Relationships between preclinical cardiac electrophysiology, clinical QT interval prolongation and torsade de pointes for a broad range of drugs: evidence for a provisional safety margin in drug development. Cardiovasc. Res. 58:32-45, Sanguinetti M C, Tristani-Firouzi M. 2006; hERG potassium channels and cardiac arrhythmia. Nature 440:463-469, Webster R, Leishman D, Walker D. 2002; Towards a drug concentration effect relationship for QT prolongation and torsades de pointes. Curr. Opin. Drug Discov. Devel. 5:116-26).
(In general: Block of hERG is tested as a sign of cardiac risk.)

For another data set, the target named is T6, human TLR8 (Homo sapiens, UniProt Q9NR97).
T6 sequence (Q9NR97 27-1041): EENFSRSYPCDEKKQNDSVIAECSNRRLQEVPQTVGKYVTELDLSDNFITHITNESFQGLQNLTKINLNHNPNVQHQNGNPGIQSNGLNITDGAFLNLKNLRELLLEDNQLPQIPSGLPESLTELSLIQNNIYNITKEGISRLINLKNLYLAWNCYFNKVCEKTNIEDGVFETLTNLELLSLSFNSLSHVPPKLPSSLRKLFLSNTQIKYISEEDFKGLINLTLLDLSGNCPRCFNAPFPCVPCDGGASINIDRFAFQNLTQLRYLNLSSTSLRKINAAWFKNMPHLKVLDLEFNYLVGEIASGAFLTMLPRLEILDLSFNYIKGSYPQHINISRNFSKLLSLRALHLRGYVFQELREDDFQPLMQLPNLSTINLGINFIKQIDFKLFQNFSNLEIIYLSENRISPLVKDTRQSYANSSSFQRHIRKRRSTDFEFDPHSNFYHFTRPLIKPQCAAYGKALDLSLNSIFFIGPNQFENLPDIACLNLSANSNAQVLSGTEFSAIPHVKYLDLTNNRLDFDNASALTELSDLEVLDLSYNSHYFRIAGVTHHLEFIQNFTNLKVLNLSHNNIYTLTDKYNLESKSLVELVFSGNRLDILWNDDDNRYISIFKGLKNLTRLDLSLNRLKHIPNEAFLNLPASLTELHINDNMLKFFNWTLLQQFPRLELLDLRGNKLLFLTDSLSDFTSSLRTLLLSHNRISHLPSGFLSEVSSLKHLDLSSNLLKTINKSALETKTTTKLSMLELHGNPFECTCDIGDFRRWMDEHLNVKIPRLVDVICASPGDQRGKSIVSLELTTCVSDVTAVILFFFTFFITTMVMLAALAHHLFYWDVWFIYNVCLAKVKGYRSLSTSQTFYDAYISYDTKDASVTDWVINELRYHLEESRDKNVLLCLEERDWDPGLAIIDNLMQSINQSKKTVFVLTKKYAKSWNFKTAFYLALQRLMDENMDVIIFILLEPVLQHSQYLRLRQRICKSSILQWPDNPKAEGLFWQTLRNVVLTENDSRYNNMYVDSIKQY
Description: HEK293-Blue-hTLR-8 cells assay. The format is cell-based. The note with it: HEK293-Blue-hTLR8 cells, R848 stimulation, 20 hrs, SEAP reporter; read-out: HEK/hTLR8 IC50. The source says: HEK293-Blue-hTLR-8 cells assay:
A stable HEK293-Blue-hTLR-8 cell line was purchased from InvivoGen (Cat. #: hkb-htlr8, San Diego, California, USA). These cells were originally designed for studying the stimulation of human TLR8 by monitoring the activation of NF-κB. A SEAP (secreted embryonic alkaline phosphatase) reporter gene was placed under the control of the IFN-β minimal promoter fused to five NF-κB and AP-1-binding sites. The SEAP was induced by activating NF-κB and AP-1 via stimulating HEK-Blue hTLR8 cells with TLR8 ligands. Therefore the reporter expression was declined by TLR8 antagonist under the stimulation of a ligand, such as R848, for incubation of 20 hrs. The cell culture supernatant SEAP reporter activity was determined using QUANTI-Blue™kit (Cat. #: rep-qb1, Invivogen, San Diego, Ca, USA) at a wavelength of 640 nm, a detection medium that turns purple or blue in the presence of alkaline phosphatase.
HEK293-Blue-hTLR8 cells were incubated at a density of 250,000˜450,000 cells/mL in a volume of 170 μL in a 96-well plate in Dulbecco's Modified Eagle's medium (DMEM) containing 4.5 g/L glucose, 50 U/mL penicillin, […], […], 2 mM L-glutamine, 10% (v/v) heat-inactivated fetal bovine serum with addition of 20 μL test compound in a serial dilution in the presence of final DMSO at 1% and 10 μL of 60 uM R848 in above DMEM, perform incubation under 37° C. in a CO2 incubator for 20 hrs. Then 20 μL of the supernatant from each well was incubated with 180 μL Quanti-blue substrate solution at 37° C. for 2 hrs and the absorbance was read at 620-655 nm using a spectrophotometer. The signaling pathway that TLR8 activation leads to downstream NF-κB activation has been widely accepted, and therefore similar reporter assay was modified for evaluating TLR8 antagonist.

Take `C[C@@H]1CN(c2ccc(C#N)c3ncccc23)C[C@H](CN2CC(NS(=O)(=O)c3ccc(F)cc3)C2)O1` [ER-894155]: the IC50 at hTLR9 is > 10 µM.
In the case of `Cc1nn(C)cc1S(=O)(=O)NC1CCN(C[C@H]2CN(c3ccc(C#N)c4ncccc34)C[C@@H](C)O2)CC1` [ER-894160], on hTLR9, the IC50 was > 10 µM.
Regarding `C[C@@H]1CN(c2ccc(C#N)n3nccc23)C[C@H](CN2CC3(C2)OCc2cc(N4CC5(CN(C)C5)C4)ccc23)O1` [Example 8, 4-[(2R,6S)-2-methyl-6-[[6-(6-methyl-2,6-diazaspiro[3.3]heptan-2-yl)spiro[1H-isobenzofuran-3,3′-azetidine]-1′-yl]methyl]morpholin-4-yl]pyrazolo[1,5-a]pyridine-7-carbonitrile], the “CYP (%) 3A4” value at CYP3A4 is on record as −8.5%. Moreover, the “CYP (%) 2D6” value at CYP2D6 is reported as 5%. Moreover, the “CYP (%) 2C9” value on CYP2C9 is −8.5%.
As for `[2H]c1ccc2c(N3C[C@H](CN4CC5(C4)OCc4cc(N6CC(C)(N)C6)ccc45)O[C@H](C)C3)ccc(C#N)c2n1` [Example 11, 5-[(2S,6R)-2-[[6-(3-amino-3-methyl-azetidin-1-yl)spiro[1H-isobenzofuran-3,3′-azetidine]-1′-yl]methyl]-6-methyl-morpholin-4-yl]-2-deuterio-quinoline-8-carbonitrile], the “CYP (%) 3A4” value on CYP3A4 is recorded as 12%. For the same molecule, the “CYP (%) 2D6” value at CYP2D6 was 5.5%. Also, at hERG channel, the IC50 was > 20 µM and the IC20 was found to be 6.2 µM. Further, on CYP2C9, the “CYP (%) 2C9” value was found to be 4%.
`[2H]c1ccc2c(N3C[C@H](CN4CC5(C4)OCc4cc(N6CC(N)C6)ccc45)O[C@H](C)C3)ccc(C#N)c2n1` [Example 14, 5-[(2S,6R)-2-[[6-(3-aminoazetidin-1-yl)spiro[1H-isobenzofuran-3,3′-azetidine]-1′-yl]methyl]-6-methyl-morpholin-4-yl]-2-deuterio-quinoline-8-carbonitrile]: on hERG channel, the IC50 is > 20 µM and the IC20 was > 10 µM.
With `[2H]c1ccc2c(N3C[C@H](CN4CC5(C4)OCc4cc(N6CC7(CNCCO7)C6)ccc45)O[C@H](C)C3)ccc(C#N)c2n1` [Example 15, 2-deuterio-5-[(2R,6S)-2-methyl-6-[[6-(5-oxa-2,8-diazaspiro[3.5]nonan-2-yl)spiro[1H-isobenzofuran-3,3′-azetidine]-1′-yl]methyl]morpholin-4-yl]quinoline-8-carbonitrile], the IC50 on human TLR8 was found to be 0.009 µM.
